According to patent US20080300253A1, “TREATMENT OF INFLAMMATORY DISORDERS WITH PRAZIQUANTEL” (Gencross, Inc., priority 2005, published 2008):
Read-outs that look alike come from different tables or passages of the source.

Experiments:
TNF-α [1] = test: TNF-α amount in LPS-treated differentiated THP-1 cells (Western blotting); type: cell-based, human
Description: (§1) The THP-1 human monocytic cell line was treated with 200 nM phorbol myristate acetate (PMA) for 24 hours, resulting in differentiation into functional macrophages. Differentiated THP-1 cells were treated with 2 μg/ml lipopolysaccharide (LPS), and total proteins or nuclear proteins were isolated 0.5, 1, 2, and 3 hours later. In some differentiated THP-1 cell cultures, a combination of LPS and 100 nM praziquantel was added prior to isolation of total and nuclear proteins at the same time points. Both total protein and nuclear protein were quantitated by Western blotting. […] Thus, praziquantel inhibits LPS-induced NF-κB activity by preventing its translocation to the nucleus where it exerts its transcriptional activation effects. Neither α-tubulin nor lamin B protein was affected by either LPS or praziquantel treatment (FIG. 1).

p38 [2] = test: Phosphorylated p38 in LPS-treated differentiated THP-1 cells (Western blotting); type: cell-based, human; conditions: 2 μg/ml LPS + 100 nM praziquantel vs LPS alone
Description: as §1

ATF-2 [3] = test: Phosphorylated ATF-2 in LPS-treated differentiated THP-1 cells (Western blotting); type: cell-based, human; conditions: 2 μg/ml LPS + 100 nM praziquantel vs LPS alone
Description: as §1

IKK α/β = test: Phosphorylated IKK α/β in LPS-treated differentiated THP-1 cells (Western blotting); type: cell-based, human; conditions: 2 μg/ml LPS + 100 nM praziquantel vs LPS alone
Description: as §1

NF-κB = NF-κB total level and nuclear translocation in LPS-treated differentiated THP-1 cells (Western blotting); type: cell-based, human; conditions: 2 μg/ml LPS + 100 nM praziquantel
Description: as §1

TNF-α [4] = test: Serum TNF-α (ELISA) in acute mouse sepsis model (LPS/D-galactosamine); type: in vivo, C57BL/6 mice; conditions: 12.5, 25 or 50 mg/kg oral, 30 minutes prior to LPS/D-galactosamine
[5] = test system: LPS/D-galactosamine-induced acute sepsis; test: Survival of LPS/D-galactosamine-treated mice (acute sepsis); type: in vivo, C57BL6 mice
Description: An acute mouse in vivo sepsis model was used to determine the ability of praziquantel to reduce TNF-α levels. C57BL/6 mice were used which were 7 to 8 weeks old and weighed 25 to 30 g. Fodder (Daehan Biolink) and water were administered ad libitum, and the temperature and relative humidity of the nursery cage were maintained at 21-24° C. and 40-80%, respectively. In addition, the nursery cage light was controlled to switch between day and night every 12 hours. Eight to ten mice were assigned to each experimental group. Each mouse was intraperitoneally (ip) administered 8 ng LPS (Sigma Aldrich) and 8 mg D-galactosamine (SIGMA), each dissolved in 100 μl distilled water, to induce acute sepsis. In order to investigate the effect of praziquantel on TNF-α levels in blood, praziquantel was orally administered to each experimental group at dosages of 12.5 mg/kg, 25 mg/kg or 50 mg/kg, 30 minutes prior to treatment with LPS/D-galactosamine. The blood was sampled 1, 3 and 5 hours after treatment with praziquantel. Serum was isolated from the sampled blood, and the amount of TNF-α was measured by ELISA (R&D Systems, Minneapolis, Minn.).
Female C57BL6 mice (8-10 per experimental group) were treated as described above to induce acute sepsis, and the same doses of praziquantel were administered 30 minutes prior to treatment with LPS/D-galactosamine.

p38 kinase = p38 kinase amount and phosphorylation in blood mononuclear cells of LPS/D-galactosamine-treated mice (western blotting); type: in vivo; conditions: 50 mg/kg oral 30 minutes prior to LPS/D-galactosamine; blood 3 hours later
Description: (§2) Mice were orally administered 50 mg/kg praziquantel 30 minutes prior to ip injection of 8 ng LPS and 8 mg D-galactosamine. Blood samples were taken 3 hours later, and mononuclear cells were isolated using Histopaque (Sigma Aldrich, cat #1080). Protein levels and their phosphorylation states were then determined by western blotting.

ATF-2 [6] = test: ATF-2 phosphorylation in blood mononuclear cells of LPS/D-galactosamine-treated mice (western blotting); type: in vivo; conditions: 50 mg/kg oral 30 minutes prior to LPS/D-galactosamine; blood 3 hours later
Description: as §2

IKK-α = IKK-α phosphorylation in blood mononuclear cells of LPS/D-galactosamine-treated mice (western blotting); type: in vivo; conditions: 50 mg/kg oral 30 minutes prior to LPS/D-galactosamine; blood 3 hours later
Description: as §2, with “blotting. […] The amount of IKK-α and IKK-β proteins and their phosphorylation states were also examined. […] IKK-α and IKK-β are known to phosphorylate IκB, and phosphorylated IκB is degraded by a protease.” for “blotting.”

IKK-β = IKK-β phosphorylation in blood mononuclear cells of LPS/D-galactosamine-treated mice (western blotting); type: in vivo; conditions: 50 mg/kg oral 30 minutes prior to LPS/D-galactosamine; blood 3 hours later
Description: as §2, with “blotting. […] The amount of IKK-α and IKK-β proteins and their phosphorylation states were also examined. […] IKK-α and IKK-β are known to phosphorylate IκB, and phosphorylated IκB is degraded by a protease.” for “blotting.”

IκB = IκB amount and phosphorylation in blood mononuclear cells of LPS/D-galactosamine-treated mice (western blotting); type: in vivo; conditions: 50 mg/kg oral 30 minutes prior to LPS/D-galactosamine; blood 3 hours later
Description: as §2, with “blotting. […] The amount of IKK-α and IKK-β proteins and their phosphorylation states were also examined. […] IKK-α and IKK-β are known to phosphorylate IκB, and phosphorylated IκB is degraded by a protease.” for “blotting.”

TNF-α [7] = test: Mouse collagen-induced arthritis model: serum TNF-α; type: in vivo, DBA/1 mice; conditions: 50 mg/kg oral suspension in saline, once or twice a day for three weeks; vs vehicle
Description: (§3) Male DBA/1 mice, obtained from the Jackson Laboratory, are maintained in groups of three to five in polycarbonate cages and fed standard mouse chow and water ad libitum. The environment is made specifically pathogen-free. Mice are immunized with bovine type II collagen (CII), at 8 to 12 weeks of age, as described previously (Arthritis Rheum. 2002, 46:1109, 2002; J. Immunol., 5846, 2005). Briefly, CII is dissolved in 0.05N acetic acid at 2 mg/ml, and emulsified (1:1 ratio) with complete Freund's adjuvant (CFA) at 4° C. The mice receive 0.1 ml of the emulsion, containing 100 μg of CII, in the base of the tail as a primary immunization. Booster injections are given into the footpad with 50 μg of CII, similarly dissolved and emulsified with CFA (1:1), 14 days after the primary immunization. CIA develops as early as 3 wk, peaks at 5-7 wk, and thereafter spontaneously resolves at 10 wk. Mice are divided into two groups. One group is administered vehicle (saline), and the other group is administered an oral suspension of 50 mg/kg praziquantel in saline starting 2 weeks after the CII booster injection. Praziquantel administration is continued once or twice a day for three weeks after the initial administration.
(§4) TNF-α and p38 levels in blood are then assayed as described above, and the incidence and severity of arthritis in the two groups of mice are determined by visual inspection.

p38 [8] = test: Mouse collagen-induced arthritis model: serum p38; type: in vivo, DBA/1 mice; conditions: 50 mg/kg oral suspension in saline, once or twice a day for three weeks; vs vehicle
Description: as §3, §4

[9] = test system: collagen-induced arthritis; test: Mouse collagen-induced arthritis model: severity of arthritis by visual inspection; type: in vivo, DBA/1 mice; conditions: 50 mg/kg oral suspension in saline, once or twice a day for three weeks; vs vehicle
Description: as §3, §4

[10] = rats; cited from earlier work
[11] = dogs dosed with 100 mg/kg; cited from earlier work
[12] = cats dosed with 100 mg/kg; cited from earlier work

## O=C(C1CCCCC1)N1CC(=O)N2CCc3ccccc3C2C1 (stereo not drawn) [Praziquantel, 2-(cyclohexylcarbonyl)-1,2,3,6,7,11β-hexahydro-4H-pyrazino[2,1-α]isoquinoline-4-one]
TNF-α [1]; 2 μg/ml LPS + 100 nM praziquantel vs LPS alone, one, two and three hours
  amount of TNF-α: much less TNF-α
TNF-α [1]; 2 μg/ml LPS + 100 nM praziquantel, two and three hour time points
  amount of TNF-α: barely detectable
p38 [2]
  active (phosphorylated) form of p38: Significant reductions
ATF-2 [3]
  active (phosphorylated) form of ATF-2: Significant reductions
IKK α/β
  active (phosphorylated) form of IKK α/β: Significant reductions
NF-κB
  total NF-κB levels: not affected
NF-κB; nuclear fraction
  translocation of NF-κB to the nucleus: did not occur
TNF-α [4]
  amount of TNF-α in blood serum: dose-dependent decrease
[5]; 12.5 mg/kg oral, 0 h
  Survival (# of mice): (30/30)
  Survival rate: 100%
[5]; 12.5 mg/kg oral, 5 h
  Survival (# of mice): (30/30)
  Survival rate: 100%
[5]; 12.5 mg/kg oral, 6 h
  Survival (# of mice): (26/30)
  Survival rate: 86%
[5]; 12.5 mg/kg oral, 7 h
  Survival (# of mice): (17/30)
  Survival rate: 57%
[5]; 12.5 mg/kg oral, 8 h
  Survival (# of mice): (15/30)
  Survival rate: 50%
[5]; 12.5 mg/kg oral, 9 h
  Survival (# of mice): (13/30)
  Survival rate: 43%
[5]; 12.5 mg/kg oral, 10 h
  Survival (# of mice): (4/30)
  Survival rate: 14%
[5]; 12.5 mg/kg oral, 11 h
  Survival (# of mice): (4/30)
  Survival rate: 14%
[5]; 12.5 mg/kg oral, 12 h
  Survival (# of mice): (4/30)
  Survival rate: 14%
[5]; 12.5 mg/kg oral, >24 h
  Survival (# of mice): (4/30)
  Survival rate: 14%
[5]; 25 mg/kg oral, 0 h
  Survival (# of mice): (30/30)
  Survival rate: 100%
[5]; 25 mg/kg oral, 5 h
  Survival (# of mice): (30/30)
  Survival rate: 100%
[5]; 25 mg/kg oral, 6 h
  Survival (# of mice): (28/30)
  Survival rate: 93%
[5]; 25 mg/kg oral, 7 h
  Survival (# of mice): (21/30)
  Survival rate: 71%
[5]; 25 mg/kg oral, 8 h
  Survival (# of mice): (21/30)
  Survival rate: 71%
[5]; 25 mg/kg oral, 9 h
  Survival (# of mice): (21/30)
  Survival rate: 71%
[5]; 25 mg/kg oral, 10 h
  Survival (# of mice): (21/30)
  Survival rate: 71%
[5]; 25 mg/kg oral, 11 h
  Survival (# of mice): (21/30)
  Survival rate: 71%
[5]; 25 mg/kg oral, 12 h
  Survival (# of mice): (19/30)
  Survival rate: 64%
[5]; 25 mg/kg oral, >24 h
  Survival (# of mice): (19/30)
  Survival rate: 64%
[5]; 50 mg/kg oral, 0 h
  Survival (# of mice): (30/30)
  Survival rate: 100%
[5]; 50 mg/kg oral, 5 h
  Survival (# of mice): (30/30)
  Survival rate: 100%
[5]; 50 mg/kg oral, 6 h
  Survival (# of mice): (28/30)
  Survival rate: 93%
[5]; 50 mg/kg oral, 7 h
  Survival (# of mice): (28/30)
  Survival rate: 93%
[5]; 50 mg/kg oral, 8 h
  Survival (# of mice): (28/30)
  Survival rate: 93%
[5]; 50 mg/kg oral, 9 h
  Survival (# of mice): (28/30)
  Survival rate: 93%
[5]; 50 mg/kg oral, 10 h
  Survival (# of mice): (28/30)
  Survival rate: 93%
[5]; 50 mg/kg oral, 11 h
  Survival (# of mice): (28/30)
  Survival rate: 93%
[5]; 50 mg/kg oral, 12 h
  Survival (# of mice): (28/30)
  Survival rate: 93%
[5]; 50 mg/kg oral, >24 h
  Survival (# of mice): (28/30)
  Survival rate: 93%
p38 kinase
  amount of p38 protein: did not change
  phosphorylation of p38 kinase: inhibited
ATF-2 [6]
  phosphorylation of ATF-2: inhibited
IKK-α
  phosphorylation of IKK-α: inhibited
IKK-β
  phosphorylation of IKK-β: inhibited
IκB
  amount of IκB protein: did not decrease
  phosphorylation of IκB: inhibited
TNF-α [7]
  serum levels of TNF-α: significantly reduced
p38 [8]
  serum levels of p38: significantly reduced
[9]
  severity of arthritis: greatly reduced
[10]
  LD50: 2,000-3,000 mg/kg
[11]
  adverse effects: No adverse effects
[12]
  adverse effects: No adverse effects
